Results on 21 molecules are retold here after US10954228B2 (NATIONAL INSTITUTES OF HEALTH, UNITED STATES DEPARTMENT OF …, priority 2016, dated 2021).

Bounds are passed on as bounds.

One test addresses Human LDHA (Homo sapiens (Human), UniProt P00338). Briefly: human LDHA primary biochemical assay. The conditions noted are these: biochemical LDHA inhibitory activity, assay of Example 1; activity level classes defined in nM. The procedure, abridged:
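Human LDHA at 2 nM with 0.06 mM NADH and 0.2 mM sodium pyruvate in 200 mM Tris HCl pH 7.4, 100 μM EDTA, 0.01% TWEEN-20 (final). NADH consumption coupled to resazurin/diaphorase (0.037 mM; 0.133 mg/mL); inhibition read by fluorescence.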

The next test has as its system MiaPaCa2 cells. Briefly: cell-based HT lactate assay by colorimetric/fluorometric detection (cellular inhibition of lactate production). As to the method:
This example describes a cell-based metabolite assay by colorimetric/fluorometric detection employed in the characterization of a compound of formula (I) in an embodiment of the invention.
Cell-based HT Lactate assay is a miniaturized Biovision Lactate Colorimetric/Fluorometric Assay Kit (Cat #K607-100). The assay is roughly a 3.5 hour assay run in a 1536 plate format. Cell number optimization should be run for each cell line to achieve an optimal number in which lactate production equals roughly 90% of the standard curve range. Cell number per well optimization has been performed with the following cell lines: MiaPaCa2—500 cells/well, SNU398—500 cells/well, and P493—500 cells/well.

Setting [1] is: Homo sapiens, MIA PaCa-2, assay of Example 6.

For `NS(=O)(=O)c1ccc(Cc2c(-c3ccc(F)c(-c4ccc(Cl)cc4)c3)nn(-c3nc(C(=O)O)cs3)c2CC2CC2)cc1F` [Compound 139, 2-(3-(4′-chloro-6-fluoro-[1,1′-biphenyl]-3-yl)-5-(cyclopropylmethyl)-4-(3-fluoro-4-sulfamoylbenzyl)-1H-pyrazol-1-yl)thiazole-4-carboxylic acid], the half-maximal inhibitory concentration (IC50) at Human LDHA was below 100 nM; with MiaPaCa2 cells (setting [1]), below 1000 nM.

Consider `Cc1cccc(-c2cc(-c3nn(-c4nc(C(=O)O)cs4)c(CC4CC4)c3Cc3ccc(S(N)(=O)=O)c(F)c3)ccc2F)c1` [Compound 141], for which the IC50 at Human LDHA was below 100 nM; with MiaPaCa2 cells (assay of Example 6), below 1000 nM.

For `NS(=O)(=O)c1ccc(Cc2c(-c3ccc(F)c(-c4ccc5c(c4)CCCC5)c3)nn(-c3nc(C(=O)O)cs3)c2CC2CC2)cc1F` [Compound 143, 2-(5-(cyclopropylmethyl)-3-(4-fluoro-3-(5,6,7,8-tetrahydronaphthalen-2-yl)phenyl)-4-(3-fluoro-4-sulfamoylbenzyl)-1H-pyrazol-1-yl)thiazole-4-carboxylic acid], the values for the IC50 at Human LDHA and with MiaPaCa2 cells (setting [1]) were below 100 nM and below 1000 nM, respectively.

In the case of `NS(=O)(=O)c1ccc(Cc2c(-c3ccc(F)c(-c4ccc(Cl)c(F)c4)c3)nn(-c3nc(C(=O)O)cs3)c2CC2CC2)cc1F` [Compound 144, 2-(3-(4′-chloro-3′,6-difluoro-[1,1′-biphenyl]-3-yl)-5-(cyclopropylmethyl)-4-(3-fluoro-4-sulfamoylbenzyl)-1H-pyrazol-1-yl)thiazole-4-carboxylic acid], the IC50 against Human LDHA is below 100 nM; in the test on MiaPaCa2 cells (setting [1]) it was below 1000 nM.

In the case of `NS(=O)(=O)c1ccc(Cc2c(-c3ccc(F)c(C4=CCCCC4)c3)nn(-c3nc(C(=O)O)cs3)c2CC2CC2)cc1F` [Compound 146, 2-(5-(cyclopropylmethyl)-3-(6-fluoro-2′,3′,4′,5′-tetrahydro-[1,1′-biphenyl]-3-yl)-4-(3-fluoro-4-sulfamoylbenzyl)-1H-pyrazol-1-yl)thiazole-4-carboxylic acid], the IC50 against Human LDHA is below 100 nM; in the test with MiaPaCa2 cells (setting [1]), below 1000 nM.

Consider `NS(=O)(=O)c1ccc(Cc2c(-c3ccc(F)c(-c4cccc(Cl)c4)c3)nn(-c3nc(C(=O)O)cs3)c2CC2CC2)cc1F` [Compound 149, 2-(3-(3′-chloro-6-fluoro-[1,1′-biphenyl]-3-yl)-5-(cyclopropylmethyl)-4-(3-fluoro-4-sulfamoylbenzyl)-1H-pyrazol-1-yl)thiazole-4-carboxylic acid], for which the IC50 was below 100 nM at Human LDHA and below 1000 nM in the test on MiaPaCa2 cells (setting [1]).

On to `COc1ccc(-c2cc(-c3nn(-c4nc(C(=O)O)cs4)c(CC4CC4)c3Cc3ccc(S(N)(=O)=O)c(F)c3)ccc2F)cc1C` [Compound 150, 2-(5-(cyclopropylmethyl)-3-(6-fluoro-4′-methoxy-3′-methyl-[1,1′-biphenyl]-3-yl)-4-(3-fluoro-4-sulfamoylbenzyl)-1H-pyrazol-1-yl)thiazole-4-carboxylic acid], for which the values for the 50% inhibitory concentration (IC50) against Human LDHA and in the test on MiaPaCa2 cells (setting [1]) were below 100 nM and below 1000 nM, respectively.

As to `Cc1cc(C)cc(-c2cc(-c3nn(-c4nc(C(=O)O)cs4)c(CC4CC4)c3Cc3ccc(S(N)(=O)=O)c(F)c3)ccc2F)c1` [Compound 151, 2-(5-(cyclopropylmethyl)-3-(6-fluoro-3′,5′-dimethyl-[1,1′-biphenyl]-3-yl)-4-(3-fluoro-4-sulfamoylbenzyl)-1H-pyrazol-1-yl)thiazole-4-carboxylic acid], the IC50 at Human LDHA was 100 to 1000 nM; in the test on MiaPaCa2 cells (setting [1]), below 1000 nM.

Take `COc1cc(OC)cc(-c2cc(-c3nn(-c4nc(C(=O)O)cs4)c(CC4CC4)c3Cc3ccc(S(N)(=O)=O)c(F)c3)ccc2F)c1` [Compound 153, 2-(5-(cyclopropylmethyl)-3-(6-fluoro-3′,5′-dimethoxy-[1,1′-biphenyl]-3-yl)-4-(3-fluoro-4-sulfamoylbenzyl)-1H-pyrazol-1-yl)thiazole-4-carboxylic acid]: the figures for the IC50 against Human LDHA and with MiaPaCa2 cells (setting [1]) were below 100 nM and below 1000 nM, respectively.

On to `NS(=O)(=O)c1ccc(Cc2c(-c3ccc(F)c(-c4ccc5c(c4)CCC5)c3)nn(-c3nc(C(=O)O)cs3)c2CC2CC2)cc1F` [Compound 155, 2-(5-(cyclopropylmethyl)-3-(3-(2,3-dihydro-1H-inden-5-yl)-4-fluorophenyl)-4-(3-fluoro-4-sulfamoylbenzyl)-1H-pyrazol-1-yl)thiazole-4-carboxylic acid], for which the results for the IC50 on Human LDHA and in the test with MiaPaCa2 cells (setting [1]) were below 100 nM and below 1000 nM, respectively.

Take `NS(=O)(=O)c1ccc(Cc2c(-c3ccc(F)c(-c4cc(F)cc(F)c4)c3)nn(-c3nc(C(=O)O)cs3)c2CC2CC2)cc1F` [Compound 156, 2-(5-(cyclopropylmethyl)-4-(3-fluoro-4-sulfamoylbenzyl)-3-(3′,5′,6-trifluoro-[1,1′-biphenyl]-3-yl)-1H-pyrazol-1-yl)thiazole-4-carboxylic acid]: the 50% inhibitory concentration (IC50) against Human LDHA is below 100 nM; with MiaPaCa2 cells (setting [1]) it was below 1000 nM.

For `NS(=O)(=O)c1ccc(Cc2c(-c3ccc(F)c(-c4cc(Cl)cc(Cl)c4)c3)nn(-c3nc(C(=O)O)cs3)c2CC2CC2)cc1F` [Compound 157, 2-(5-(cyclopropylmethyl)-3-(3′,5′-dichloro-6-fluoro-[1,1′-biphenyl]-3-yl)-4-(3-fluoro-4-sulfamoylbenzyl)-1H-pyrazol-1-yl)thiazole-4-carboxylic acid], the IC50 on Human LDHA is 100 to 1000 nM; in the test on MiaPaCa2 cells (setting [1]) it was below 1000 nM.

As to `NS(=O)(=O)c1ccc(Cc2c(-c3cccc(-c4ccc(Cl)c(F)c4)c3)nn(-c3nc(C(=O)O)cs3)c2CC2CC2)cc1F` [Compound 164, 2-(3-(4′-chloro-3′-fluoro-[1,1′-biphenyl]-3-yl)-5-(cyclopropylmethyl)-4-(3-fluoro-4-sulfamoylbenzyl)-1H-pyrazol-1-yl)thiazole-4-carboxylic acid], the IC50 was below 100 nM at Human LDHA and below 1000 nM with MiaPaCa2 cells (setting [1]).

Consider `COc1ccc(-c2cccc(-c3nn(-c4nc(C(=O)O)cs4)c(CC4CC4)c3Cc3ccc(S(N)(=O)=O)c(F)c3)c2)cc1C` [Compound 165, 2-(5-(cyclopropylmethyl)-4-(3-fluoro-4-sulfamoylbenzyl)-3-(4′-methoxy-3′-methyl-[1,1′-biphenyl]-3-yl)-1H-pyrazol-1-yl) thiazole-4-carboxylic acid], for which the 50% inhibitory concentration (IC50) against Human LDHA was below 100 nM; in the test on MiaPaCa2 cells (setting [1]), below 1000 nM.

As to `NS(=O)(=O)c1ccc(Cc2c(-c3cccc(-c4ccc(Cl)cc4)c3)nn(-c3nc(C(=O)O)cs3)c2CC2CC2)cc1F` [Compound 166, 2-(3-(4′-chloro-[1,1′-biphenyl]-3-yl)-5-(cyclopropylmethyl)-4-(3-fluoro-4-sulfamoylbenzyl)-1H-pyrazol-1-yl)thiazole-4-carboxylic acid], the IC50 against Human LDHA is below 100 nM; in the test with MiaPaCa2 cells (setting [1]), below 1000 nM.

Turning to `Cc1ccc(-c2cccc(-c3nn(-c4nc(C(=O)O)cs4)c(CC4CC4)c3Cc3ccc(S(N)(=O)=O)c(F)c3)c2)cc1F` [Compound 167, 2-(5-(cyclopropylmethyl)-3-(3′-fluoro-4′-methyl-[1,1′-biphenyl]-3-yl)-4-(3-fluoro-4-sulfamoylbenzyl)-1H-pyrazol-1-yl)thiazole-4-carboxylic acid], the half-inhibitory concentration (IC50) was below 100 nM on Human LDHA and below 1000 nM with MiaPaCa2 cells (setting [1]).

Turning to `CC(C)(C)c1ccc(-c2cccc(-c3nn(-c4nc(C(=O)O)cs4)c(CC4CC4)c3Cc3ccc(S(N)(=O)=O)c(F)c3)c2)cc1` [Compound 168, 2-(3-(4′-(tert-butyl)-[1,1′-biphenyl]-3-yl)-5-(cyclopropylmethyl)-4-(3-fluoro-4-sulfamoylbenzyl)-1H-pyrazol-1-yl)thiazole-4-carboxylic acid], the results for the IC50 against Human LDHA and with MiaPaCa2 cells (setting [1]) were 100 to 1000 nM and below 1000 nM, respectively.

Take `CC(C)c1ccc(-c2cccc(-c3nn(-c4nc(C(=O)O)cs4)c(CC4CC4)c3Cc3ccc(S(N)(=O)=O)c(F)c3)c2)cc1` [Compound 169, 2-(5-(cyclopropylmethyl)-4-(3-fluoro-4-sulfamoylbenzyl)-3-(4′-isopropyl-[1,1′-biphenyl]-3-yl)-1H-pyrazol-1-yl)thiazole-4-carboxylic acid]: the figures for the IC50 against Human LDHA and in the test with MiaPaCa2 cells (setting [1]) were below 100 nM and below 1000 nM, respectively.

As to `CC(C)c1cccc(-c2cccc(-c3nn(-c4nc(C(=O)O)cs4)c(CC4CC4)c3Cc3ccc(S(N)(=O)=O)c(F)c3)c2)c1` [Compound 173, 2-(5-(cyclopropylmethyl)-4-(3-fluoro-4-sulfamoylbenzyl)-3-(3′-isopropyl-[1,1′-biphenyl]-3-yl)-1H-pyrazol-1-yl)thiazole-4-carboxylic acid], the figures for the IC50 at Human LDHA and with MiaPaCa2 cells (setting [1]) were below 100 nM and above 57000 nM, respectively.

For the molecule `NS(=O)(=O)c1ccc(Cc2c(-c3cccc(-c4ccc5c(c4)CCCC5)c3)nn(-c3nc(C(=O)O)cs3)c2CC2CC2)cc1F` [Compound 174, 2-(5-(cyclopropylmethyl)-4-(3-fluoro-4-sulfamoylbenzyl)-3-(3-(5,6,7,8-tetrahydronaphthalen-2-yl)phenyl)-1H-pyrazol-1-yl)thiazole-4-carboxylic acid], the IC50 was 100 to 1000 nM against Human LDHA and above 57000 nM in the test on MiaPaCa2 cells (setting [1]).

Take `NS(=O)(=O)c1ccc(Cc2c(-c3cccc(-c4cccc(Cl)c4)c3)nn(-c3nc(C(=O)O)cs3)c2CC2CC2)cc1F` [Compound 175, 2-(3-(3′-chloro-[1,1′-biphenyl]-3-yl)-5-(cyclopropylmethyl)-4-(3-fluoro-4-sulfamoylbenzyl)-1H-pyrazol-1-yl)thiazole-4-carboxylic acid]: the results for the IC50 against Human LDHA and in the test with MiaPaCa2 cells (setting [1]) were below 100 nM and above 57000 nM, respectively.
